Legend:
FASN = assay: Cholesterol conjugated Fasn-2314 in Tgfb activated Lx2 cells, Western blotting; type: cell-based, human; settings: 1.5 uM, Tgfb 5 ng/ml
Description: (§1) In the analysis of protein expression, cell lysates were homogenized in a RIPA buffer (25 mM Tris, pH 7.4 0.15 M NaCl 0.1% Tween 20) with 1:100 protease inhibitor (78442, Thermo Scientific). The lysates were denatured by boiling, separated on a 4 to 15% SDS/polyacrylamide gel electrophoresis gel (567-1094, Bio-Rad), and transferred to a nitrocellulose membrane (1704159, Bio-Rad). The membrane was blocked using TBS-T with 5% BSA for 1 hour at room temperature and incubated using p-SMAD3 (ab52903, Abcam), type I collagen (1310-30, Southern Biotech), and GAPDH (5174, Cell Signaling). The blot was further washed in TBS-T and incubated at room temperature with its corresponding secondary antibody for 30 minutes. Following another wash, the blot was incubated with ECL (32106, Thermo Scientific) and visualized with the ChemiDox XRS+ image-forming system.
Moreover, the protein level of Smad3 was also measured for untreated control, cholesterol conjugated non-targeting control, and cholesterol conjugated Fasn-2314. 1×10^6 of human Lx2 cells were plated in 10 cm2 plates and treated with 1.5 uM cholesterol conjugated Fasn-2314. 24 hrs post treatment Lx2 cells were activated with Tgfb (5 ng/ml) to induce fibrotic phenotype. 48 hrs post activation cells were harvested and processed for Western blotting analysis.

LX2 human stellate cells = assay: Tgf-β driven activation of LX2 human stellate cells with Fasn inhibitor; type: cell-based
Description: In vitro screening of LX2 human stellate cells was executed by plating 500,000 cells/well in 6-well plates overnight at 37° C., 5% CO2 in 0% FBS DMEM medium (11885-076, Gibco). Following a 4-hour pre-treatment with 1 nM or 100 nM Fasn inhibitor (TVB-3664-S8563, Selleck Chemicals), stellate cell activation was initiated by adding recombinant human Tgf-β (240-B-002, R & D Systems) for a 5 ng/mL final concentration. After 48 hours, protein and mRNA were isolated from the cells and further analysis was performed.
Frozen liver tissue punches (25-50 mg) were homogenized in TRIzol (15596018, Thermo Scientific) using the Qiagen TissueLyser II. Chloroform was added to the homogenate and centrifuged for 15 minutes at maximum speed. The clear upper layer was added to an equal volume of 100% isopropanol and incubated for 1 h at 4° C. After 10 min of centrifugation at maximum speed, the supernatant was discarded, and 70 to 75% ethanol was added to wash the pellet. After 5 min of centrifugation at maximum speed, the supernatant was discarded, and the pellet was briefly dried in the hood prior to resuspension in double-distilled water. RNA concentration was measured via the Thermo Scientific NanoDrop2000 spectrophotometer. Complementary DNA was then synthesized from 1 μg of total RNA using iScript cDNA Synthesis Kit (1708890, Bio-Rad) and Bio-Rad T100 thermocycler. Quantitative RT-PCR was performed using iQ SybrGreen Supermix (4368708, Applied Biosystems) on the Bio-Rad CFX96 C1000 Touch Thermal Cycler and analyzed.
as §1
To investigate the role of palmitate production in stellate cell activation, LX2 human stellate cells were treated with a validated, potent and specific small molecule inhibitor of Fasn, TVB-3664, at a final concentration of either 1 nM or 100 nM for 4 hours. Cells were then subjected to 5 ng/mL Tgf-β, a strong stimulator of stellate cell activation. Forty-eight hours later, the morphology of activated stellate cells, with increased cell size and elongation of spindle-like structures, was easily observed in Tgf-β treated cells.

[1] = LX2 cells, 1 nM or 100 nM, 4 hours, then 5 ng/mL Tgf-β, 48 hours

Compound	LC3II protein (autophagy) (FASN)	activation and collagen production in Tgfb treated stellate cells (FASN)	p62 protein (autophagy) (FASN)	phosphorylation of SMAD3 (FASN)	Tgf-β-induced type 1 collagen protein expression (LX2 human stellate cells; [1])	mRNA levels of Acta2 (LX2 human stellate cells; [1])	mRNA levels of Col1a1 (LX2 human stellate cells; [1])	morphological change of activated stellate cells (LX2 human stellate cells; [1])	phosphorylated SMAD3 protein (LX2 human stellate cells; [1])	Cpt1a gene expression (LX2 human stellate cells; Tgf-β activated LX2 cells)	Hsp47 gene expression (LX2 human stellate cells; Tgf-β activated LX2 cells)	Nrf2 gene expression (LX2 human stellate cells; Tgf-β activated LX2 cells)	Pgc-1α gene expression (LX2 human stellate cells; Tgf-β activated LX2 cells)	Pparα gene expression (LX2 human stellate cells; Tgf-β activated LX2 cells)	Sirt1 gene expression (LX2 human stellate cells; Tgf-β activated LX2 cells)	anti-fibrotic effect (LX2 human stellate cells; Tgf-β activated LX2 cells)	expression of Nox4 (LX2 human stellate cells; Tgf-β activated LX2 cells)
FASN 2314: siRNA targeting human FASN; antisense SEQ ID NO: 56, TegChol sense SEQ ID NO: 57 (sense CCGAGUACAAUGUCAA; antisense UUGACAUUGUACUCGGCGGUU; sugars by position and backbone not given here; 2'-F/2'-OMe modifications not assigned, TegChol cholesterol on sense, further chemistry not fully specified)	accumulation	blunted	accumulation	blunted													
COCc1[nH]c(C(F)(F)F)nc1-c1cc(C(=O)N2CC(c3ccc(C#N)cc3)C2)c(C)cc1C [TVB-3664]					blocked	reduction	reduction	severely inhibited	reduced	reduction	reduction	remarkable upregulation	remarkable upregulation	remarkable upregulation	remarkable upregulation	strong anti-fibrotic effect	reduction in expression

— patent publication US20250034575A1, “OLIGONUCLEOTIDES FOR DGAT2, FASN, OPN, AND NOX4 MODULATIONS” (UNIVERSITY OF MASSACHUSETTS, priority 2023, published 2025)
